In patent US12723063B2, “GIPR-agonist compounds” (Eli Lilly and Company, priority 2019, dated 2026):
*1 amine or outer side, *2 acyl side, *3 side chain or, on linkers, in order; H or OH if unused. Where a SMILES comes first, the peptide text is derived from it. Side-chain parts run from the residue outwards. [ ]: non-standard residue; d: D form. The star is where a group is joined. C20 diacid = O=C(O)CCCCCCCCCCCCCCCCCCC(=O)*; C18 diacid = O=C(O)CCCCCCCCCCCCCCCCC(=O)*; αMePhe(2-F) = C[C@](N)(Cc1ccccc1F)C(=O)O; γGlu = O=C(O)[C@H](CCC(=O)[*:2])N[*:1]; 4Pal = N[C@@H](Cc1ccncc1)C(=O)O; αMeL = CC(C)C[C@](C)(N)C(=O)O; Orn = NCCC[C@H](N)C(=O)O; AEEA = NCCOCCOCC(=O)O; Aib = CC(C)(N)C(=O)O

Columns and labels:
human GcgR = biological target: T1, human GcgR (Homo sapiens, UniProt P47871); test: [125I]-Glucagon binding, SPA with WGA beads, 0.1% bacitracin; details: geometric mean, read-out: hGcgR Ki
T1 construct: expressed in transfected cells; crude membranes
T1 sequence (P47871 26-477): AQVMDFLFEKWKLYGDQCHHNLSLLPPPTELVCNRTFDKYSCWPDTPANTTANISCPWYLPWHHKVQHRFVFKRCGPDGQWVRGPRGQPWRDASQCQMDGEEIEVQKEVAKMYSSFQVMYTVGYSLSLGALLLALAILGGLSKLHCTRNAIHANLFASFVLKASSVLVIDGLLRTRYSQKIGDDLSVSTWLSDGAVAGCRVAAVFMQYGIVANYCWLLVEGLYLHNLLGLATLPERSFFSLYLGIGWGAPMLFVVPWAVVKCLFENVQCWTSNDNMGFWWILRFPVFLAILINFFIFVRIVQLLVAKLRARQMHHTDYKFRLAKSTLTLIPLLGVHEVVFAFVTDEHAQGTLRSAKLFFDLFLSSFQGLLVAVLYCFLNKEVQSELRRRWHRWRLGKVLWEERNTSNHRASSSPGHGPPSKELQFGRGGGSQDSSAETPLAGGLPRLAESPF
Summary of the method: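 SPA competition binding with WGA beads on crude membranes from HEK293 cells stably expressing hGcgR. Buffer: 25 mM HEPES pH 7.4, 2.5 mM CaCl2, 1 mM MgCl2, 0.1% bacitracin, 0.003% Tween-20; 10-point 3-fold dilutions, NSB with 1 μM Gcg.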

human GLP-1R = biological target: T2, human GLP-1R (Homo sapiens, UniProt P43220); test: [125I]-GLP-1 binding, SPA with WGA beads, 0.1% bacitracin; details: geometric mean, read-out: hGLP1R Ki
T2 construct: expressed in transfected cells; crude membranes
T2 sequence (P43220 24-463): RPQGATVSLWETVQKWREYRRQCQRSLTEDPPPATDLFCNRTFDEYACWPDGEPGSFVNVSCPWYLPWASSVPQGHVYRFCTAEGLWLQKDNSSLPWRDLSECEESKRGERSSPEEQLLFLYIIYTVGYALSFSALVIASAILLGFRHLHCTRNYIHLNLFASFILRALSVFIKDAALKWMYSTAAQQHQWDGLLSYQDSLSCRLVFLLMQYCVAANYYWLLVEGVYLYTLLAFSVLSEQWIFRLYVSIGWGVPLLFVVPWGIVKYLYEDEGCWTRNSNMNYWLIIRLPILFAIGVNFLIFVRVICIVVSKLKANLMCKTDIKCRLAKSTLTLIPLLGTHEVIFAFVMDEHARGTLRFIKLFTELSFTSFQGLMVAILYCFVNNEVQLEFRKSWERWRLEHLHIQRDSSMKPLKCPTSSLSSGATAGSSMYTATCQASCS
Summary of the method: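 Binding buffer was 25 mM HEPES pH 7.4 with 2.5 mM CaCl2, 1 mM MgCl2, 0.1% (w/v) bacitracin, 0.003% Tween-20 and EDTA-free protease inhibitors. Four-parameter regression gave IC50, converted to Ki (geometric mean, SEM, n independent days).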

SMILES	Ki (human GcgR)	Ki (human GLP-1R)
CC[C@H](C)[C@H](NC(=O)[C@H](CCCN)NC(=O)[C@H](CC(=O)O)NC(=O)[C@H](CC(C)C)NC(=O)[C@](C)(CC(C)C)NC(=O)[C@@H](NC(=O)[C@H](CO)NC(=O)[C@H](Cc1ccc(O)cc1)NC(=O)[C@H](CC(=O)O)NC(=O)[C@H](CO)NC(=O)[C@@H](NC(=O)[C@H](Cc1ccccc1)NC(=O)[C@@H](NC(=O)CNC(=O)[C@H](CCC(=O)O)NC(=O)C(C)(C)NC(=O)[C@@H](N)Cc1ccc(O)cc1)[C@@H](C)O)[C@@H](C)CC)[C@@H](C)CC)C(=O)N[C@@H](Cc1c[nH]cn1)C(=O)N[C@@H](CCC(N)=O)C(=O)NC(C)(C)C(=O)N[C@@H](CCC(=O)O)C(=O)N[C@@H](Cc1ccccc1)C(=O)N[C@H](C(=O)N[C@@H](CCC(=O)O)C(=O)N[C@@H](Cc1ccc(O)cc1)C(=O)N[C@@H](CCCCNC(=O)COCCOCCNC(=O)COCCOCCNC(=O)CC[C@H](NC(=O)CCCCCCCCCCCCCCCCCCC(=O)O)C(=O)O)C(=O)N[C@@H](CC(C)C)C(=O)N[C@@H](CCC(=O)O)C(=O)NCC(=O)NCC(=O)N1CCC[C@H]1C(=O)N[C@@H](CO)C(=O)N[C@@H](CO)C(=O)NCC(=O)N[C@@H](C)C(=O)N1CCC[C@H]1C(=O)N1CCC[C@H]1C(=O)N1CCC[C@H]1C(=O)N[C@@H](CO)C(N)=O)C(C)C [Example 107] (H-Y[Aib]EGTFISDYSI[αMeL]LD[Orn]IHQ[Aib]EFVEYK([AEEA-AEEA-γGlu-C20 diacid])LEGGPSSGAPPPS-NH2)	347 nM	> 911 nM
CC[C@H](C)[C@H](NC(=O)[C@H](CCCN)NC(=O)[C@H](CC(=O)O)NC(=O)[C@H](CC(C)C)NC(=O)[C@](C)(CC(C)C)NC(=O)[C@@H](NC(=O)[C@H](CO)NC(=O)[C@H](Cc1ccc(O)cc1)NC(=O)[C@H](CC(=O)O)NC(=O)[C@H](CO)NC(=O)[C@@H](NC(=O)[C@H](Cc1ccccc1)NC(=O)[C@@H](NC(=O)CNC(=O)[C@H](CCC(=O)O)NC(=O)C(C)(C)NC(=O)[C@@H](N)Cc1ccc(O)cc1)[C@@H](C)O)[C@@H](C)CC)[C@@H](C)CC)C(=O)N[C@@H](Cc1c[nH]cn1)C(=O)N[C@@H](CCC(N)=O)C(=O)NC(C)(C)C(=O)N[C@@H](CC(=O)O)C(=O)N[C@@H](Cc1ccccc1)C(=O)N[C@H](C(=O)N[C@@H](CCC(=O)O)C(=O)N[C@@H](Cc1ccncc1)C(=O)N[C@@H](CCCCNC(=O)COCCOCCNC(=O)COCCOCCNC(=O)CC[C@H](NC(=O)CCCCCCCCCCCCCCCCCCC(=O)O)C(=O)O)C(=O)N[C@@H](CC(C)C)C(=O)N[C@@H](CCC(=O)O)C(=O)NCC(=O)NCC(=O)N1CCC[C@H]1C(=O)N[C@@H](CO)C(=O)N[C@@H](CO)C(=O)NCC(=O)N[C@@H](C)C(=O)N1CCC[C@H]1C(=O)N1CCC[C@H]1C(=O)N1CCC[C@H]1C(=O)N[C@@H](CO)C(N)=O)C(C)C [Example 108] (H-Y[Aib]EGTFISDYSI[αMeL]LD[Orn]IHQ[Aib]DFVE[4Pal]K([AEEA-AEEA-γGlu-C20 diacid])LEGGPSSGAPPPS-NH2)	> 960 nM	> 910 nM
CC[C@H](C)[C@H](NC(=O)[C@H](CCCCN)NC(=O)[C@H](CC(=O)O)NC(=O)[C@H](CC(C)C)NC(=O)[C@](C)(CC(C)C)NC(=O)[C@@H](NC(=O)[C@H](CO)NC(=O)[C@H](Cc1ccc(O)cc1)NC(=O)[C@H](CC(=O)O)NC(=O)[C@H](CO)NC(=O)[C@@H](NC(=O)[C@H](Cc1ccccc1)NC(=O)[C@@H](NC(=O)CNC(=O)[C@H](CCC(=O)O)NC(=O)C(C)(C)NC(=O)[C@@H](N)Cc1ccc(O)cc1)[C@@H](C)O)[C@@H](C)CC)[C@@H](C)CC)C(=O)N[C@@H](Cc1c[nH]cn1)C(=O)N[C@@H](CCC(N)=O)C(=O)NC(C)(C)C(=O)N[C@@H](CC(=O)O)C(=O)N[C@@H](Cc1ccccc1)C(=O)N[C@H](C(=O)N[C@@H](CCC(=O)O)C(=O)N[C@@H](Cc1ccncc1)C(=O)N[C@@H](CCCCNC(=O)COCCOCCNC(=O)COCCOCCNC(=O)CC[C@H](NC(=O)CCCCCCCCCCCCCCCCCCC(=O)O)C(=O)O)C(=O)N[C@@H](CC(C)C)C(=O)N[C@@H](CCC(=O)O)C(=O)NCC(=O)NCC(=O)N1CCC[C@H]1C(=O)N[C@@H](CO)C(=O)N[C@@H](CO)C(=O)NCC(=O)N[C@@H](C)C(=O)N1CCC[C@H]1C(=O)N1CCC[C@H]1C(=O)N1CCC[C@H]1C(=O)N[C@@H](CO)C(N)=O)C(C)C [Example 109] (H-Y[Aib]EGTFISDYSI[αMeL]LDKIHQ[Aib]DFVE[4Pal]K([AEEA-AEEA-γGlu-C20 diacid])LEGGPSSGAPPPS-NH2)	> 960 nM	> 908 nM
CC[C@H](C)[C@H](NC(=O)[C@H](CCCCN)NC(=O)[C@H](CC(=O)O)NC(=O)[C@H](CC(C)C)NC(=O)[C@](C)(CC(C)C)NC(=O)[C@@H](NC(=O)[C@H](CO)NC(=O)[C@H](Cc1ccc(O)cc1)NC(=O)[C@H](CC(=O)O)NC(=O)[C@H](CO)NC(=O)[C@@H](NC(=O)[C@H](Cc1ccccc1)NC(=O)[C@@H](NC(=O)CNC(=O)[C@H](CCC(=O)O)NC(=O)C(C)(C)NC(=O)[C@@H](N)Cc1ccc(O)cc1)[C@@H](C)O)[C@@H](C)CC)[C@@H](C)CC)C(=O)N[C@@H](Cc1c[nH]cn1)C(=O)N[C@@H](CCC(N)=O)C(=O)NC(C)(C)C(=O)N[C@@H](CC(=O)O)C(=O)N[C@@H](Cc1ccccc1)C(=O)N[C@H](C(=O)N[C@@H](CCC(=O)O)C(=O)N[C@@H](Cc1ccncc1)C(=O)N[C@@H](CCCCNC(=O)COCCOCCNC(=O)COCCOCCNC(=O)CC[C@H](NC(=O)CCCCCCCCCCCCCCCCC(=O)O)C(=O)O)C(=O)N[C@@H](CC(C)C)C(=O)N[C@@H](CCC(=O)O)C(=O)NCC(=O)NCC(=O)N1CCC[C@H]1C(=O)N[C@@H](CO)C(=O)N[C@@H](CO)C(=O)NCC(=O)N[C@@H](C)C(=O)N1CCC[C@H]1C(=O)N1CCC[C@H]1C(=O)N1CCC[C@H]1C(=O)N[C@@H](CO)C(N)=O)C(C)C [Example 110] (H-Y[Aib]EGTFISDYSI[αMeL]LDKIHQ[Aib]DFVE[4Pal]K([AEEA-AEEA-γGlu-C18 diacid])LEGGPSSGAPPPS-NH2)	> 960 nM	> 908 nM
CC[C@H](C)[C@H](NC(=O)[C@H](CCCN)NC(=O)[C@H](CC(=O)O)NC(=O)[C@H](CC(C)C)NC(=O)[C@](C)(CC(C)C)NC(=O)[C@@H](NC(=O)[C@H](CO)NC(=O)[C@H](Cc1ccc(O)cc1)NC(=O)[C@H](CC(=O)O)NC(=O)[C@H](CO)NC(=O)[C@@H](NC(=O)[C@H](Cc1ccccc1)NC(=O)[C@@H](NC(=O)CNC(=O)[C@H](CCC(=O)O)NC(=O)C(C)(C)NC(=O)[C@@H](N)Cc1ccc(O)cc1)[C@@H](C)O)[C@@H](C)CC)[C@@H](C)CC)C(=O)N[C@@H](Cc1c[nH]cn1)C(=O)N[C@@H](CCC(N)=O)C(=O)NC(C)(C)C(=O)N[C@@H](CC(=O)O)C(=O)N[C@@H](Cc1ccccc1)C(=O)N[C@H](C(=O)N[C@@H](CCC(=O)O)C(=O)N[C@@H](Cc1ccncc1)C(=O)N[C@@H](CCCCNC(=O)COCCOCCNC(=O)COCCOCCNC(=O)CC[C@H](NC(=O)CCCCCCCCCCCCCCCCC(=O)O)C(=O)O)C(=O)N[C@@H](CC(C)C)C(=O)N[C@@H](CCC(=O)O)C(=O)NCC(=O)NCC(=O)N1CCC[C@H]1C(=O)N[C@@H](CO)C(=O)N[C@@H](CO)C(=O)NCC(=O)N[C@@H](C)C(=O)N1CCC[C@H]1C(=O)N1CCC[C@H]1C(=O)N1CCC[C@H]1C(=O)N[C@@H](CO)C(N)=O)C(C)C [Example 111] (H-Y[Aib]EGTFISDYSI[αMeL]LD[Orn]IHQ[Aib]DFVE[4Pal]K([AEEA-AEEA-γGlu-C18 diacid])LEGGPSSGAPPPS-NH2)	> 960 nM	> 908 nM
CC[C@H](C)[C@H](NC(=O)[C@H](CO)NC(=O)[C@H](Cc1ccc(O)cc1)NC(=O)[C@H](CC(=O)O)NC(=O)[C@H](CO)NC(=O)[C@@H](NC(=O)[C@](C)(Cc1ccccc1F)NC(=O)[C@@H](NC(=O)CNC(=O)[C@H](CCC(=O)O)NC(=O)C(C)(C)NC(=O)[C@@H](N)Cc1ccc(O)cc1)[C@@H](C)O)[C@@H](C)CC)C(=O)N[C@@H](C)C(=O)N[C@@H](CC(C)C)C(=O)N[C@@H](CC(=O)O)C(=O)N[C@@H](CCCCN)C(=O)N[C@H](C(=O)N[C@@H](Cc1c[nH]cn1)C(=O)N[C@@H](CCC(N)=O)C(=O)NC(C)(C)C(=O)N[C@@H](CC(=O)O)C(=O)N[C@@H](Cc1ccccc1)C(=O)N[C@H](C(=O)N[C@@H](CCC(=O)O)C(=O)N[C@@H](Cc1ccncc1)C(=O)N[C@@H](CCCCNC(=O)COCCOCCNC(=O)COCCOCCNC(=O)CC[C@H](NC(=O)CCCCCCCCCCCCCCCCCCC(=O)O)C(=O)O)C(=O)N[C@@H](CC(C)C)C(=O)N[C@@H](CCC(=O)O)C(=O)NCC(=O)NCC(=O)N1CCC[C@H]1C(=O)N[C@@H](CO)C(=O)N[C@@H](CO)C(=O)NCC(=O)N[C@@H](C)C(=O)N1CCC[C@H]1C(=O)N1CCC[C@H]1C(=O)N1CCC[C@H]1C(=O)N[C@@H](CO)C(N)=O)C(C)C)[C@@H](C)CC [Example 112] (H-Y[Aib]EGT[αMePhe(2-F)]ISDYSIALDKIHQ[Aib]DFVE[4Pal]K([AEEA-AEEA-γGlu-C20 diacid])LEGGPSSGAPPPS-NH2)	257 nM	> 908 nM
